This is an account of results in patent publication US20230026271A1, “Piperazine Compounds for Inhibiting CPS1” (Eisai R&D Management Co., Ltd., priority 2019, published 2023).

In this assay the target is T1, CPS1 (Homo sapiens, UniProt P31327).
T1 construct: The full length, human CPS1 gene was cloned into pFastBac HTA; His6 (from the pFastBac HTA vector); made in house; host or cells: SF21 insect cells (baculovirus, Bac-to-bac)
T1 sequence (P31327 39-1500): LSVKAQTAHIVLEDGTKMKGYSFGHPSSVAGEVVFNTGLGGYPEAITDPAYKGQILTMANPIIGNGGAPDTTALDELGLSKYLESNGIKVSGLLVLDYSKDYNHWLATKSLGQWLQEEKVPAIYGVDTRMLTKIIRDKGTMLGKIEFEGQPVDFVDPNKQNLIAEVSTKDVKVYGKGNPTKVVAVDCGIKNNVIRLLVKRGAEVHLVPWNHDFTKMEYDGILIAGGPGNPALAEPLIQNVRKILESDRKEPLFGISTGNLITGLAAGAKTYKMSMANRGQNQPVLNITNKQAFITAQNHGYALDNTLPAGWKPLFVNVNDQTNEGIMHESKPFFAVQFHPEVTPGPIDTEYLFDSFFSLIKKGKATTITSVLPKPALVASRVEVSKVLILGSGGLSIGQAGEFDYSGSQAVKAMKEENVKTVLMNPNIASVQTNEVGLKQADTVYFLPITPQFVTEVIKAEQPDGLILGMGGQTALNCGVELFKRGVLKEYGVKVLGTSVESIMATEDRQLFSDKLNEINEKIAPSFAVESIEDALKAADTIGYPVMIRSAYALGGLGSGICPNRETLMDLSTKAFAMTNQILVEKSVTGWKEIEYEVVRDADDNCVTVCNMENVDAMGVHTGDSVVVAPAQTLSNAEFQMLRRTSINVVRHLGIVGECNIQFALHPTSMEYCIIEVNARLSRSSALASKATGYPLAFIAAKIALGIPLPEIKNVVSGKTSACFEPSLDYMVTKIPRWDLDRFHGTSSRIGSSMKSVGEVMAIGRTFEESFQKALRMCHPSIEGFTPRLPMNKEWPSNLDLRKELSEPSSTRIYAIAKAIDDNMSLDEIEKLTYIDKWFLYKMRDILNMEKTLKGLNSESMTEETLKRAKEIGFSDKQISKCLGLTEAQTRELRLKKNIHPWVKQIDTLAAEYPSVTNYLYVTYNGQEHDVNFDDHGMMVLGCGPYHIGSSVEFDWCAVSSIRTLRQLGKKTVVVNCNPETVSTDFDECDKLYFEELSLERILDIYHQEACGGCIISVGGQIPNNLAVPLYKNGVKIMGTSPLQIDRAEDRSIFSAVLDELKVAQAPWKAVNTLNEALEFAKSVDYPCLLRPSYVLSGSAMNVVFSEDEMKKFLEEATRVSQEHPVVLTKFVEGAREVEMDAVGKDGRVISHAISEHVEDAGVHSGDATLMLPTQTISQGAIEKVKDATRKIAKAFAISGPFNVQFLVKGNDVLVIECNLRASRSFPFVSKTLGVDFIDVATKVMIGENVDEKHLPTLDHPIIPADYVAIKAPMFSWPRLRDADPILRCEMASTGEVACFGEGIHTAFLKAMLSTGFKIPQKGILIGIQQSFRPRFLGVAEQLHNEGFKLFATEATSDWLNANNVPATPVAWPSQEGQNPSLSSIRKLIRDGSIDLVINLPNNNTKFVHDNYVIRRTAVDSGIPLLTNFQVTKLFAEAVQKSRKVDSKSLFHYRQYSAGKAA
Description: Assay 2 - Transcreener ADP FP assay (ADP formation from CPS1). The class given is biochemical. The following applies: 10 nM CPS1, varying amounts of ATP, 60 min, fluorescence polarization. On the procedure: CPS1 was expressed and purified from SF21 insect cells. The full length, human CPS1 gene was cloned into pFastBac HTA and baculovirus was generated using the Bac-to-bac expression system from Invitrogen. P3 virus was used to infect SF21 insect cells at a density of 1.5E6 cells/mL at an MOI of 2. Cells were harvested by centrifugation after 60 hrs and the cell pellet resuspended in lysis buffer (50 mM glycyl glycine pH 7.4, 20 mM KCl, 1 mM TCEP, 10% glycerol and 20 mM imidazole with Roche protease inhibitor tablet) before being lysed with 40 strokes of a Dounce homogenizer on ice. The insoluble fraction of the lysate was then cleared by centrifugation at 30,000 rpm for 30 min. 40 mL of supernatant was mixed with 2 mL of Ni NTA beads for 45 min at 4° C. in a 50 mL conical tube.
The beads were washed with 40 mL of wash buffer (50 mM glycyl glycine pH 7.4, 500 mM NaCl, 1 mM TCEP, 10% glycerol and 50 mM imidazole) by centrifugation and resuspension of the beads three times. Bound CPS1 protein was eluted in 6 mL of elution buffer (50 mM glycyl glycine pH 7.4, 500 mM NaCl, 1 mM TCEP, 10% glycerol and 250 mM imidazole) three times. Elution fractions were combined and concentrated using an Amicon Ultra centrifugation filter with a 10,000 molecular weight cut off. […]
ADP formation from CPS1 was measured in an endpoint assay using the Transcreener ADP FP kit from BellBbrook (Cat #3010-1K).
For orientation: Fluorescence polarisation rises when a labelled molecule tumbles more slowly, as on binding a larger partner.

What is called IC50 is the midpoint of a concentration-inhibition curve. Read a high IC50 as a need for much substance. `COc1ccc(C(=O)N2[C@H](C)CN(C(=O)c3cc(OC)ccc3F)C[C@@H]2C)c(F)c1` [Compound 108, ((3S,5R)-4-(2-fluoro-4-methoxybenzoyl)-3,5-dimethylpiperazin-1-yl)(2-fluoro-5-methoxyphenyl)methanone] returned a half-maximal inhibitory concentration (IC50) of over 66.7 µM.
